The values below come from patent publication US20160137968A1, “TISSUE CULTURE TESTING SYSTEMS AND METHODS OF USE” (Barry University, priority 2014, published 2016).

SMILES strings stand for the structures.

In one series the test system is S. aureus. The series can be described thus: Bioburden reduction in infected full-thickness skin tissue samples in Franz cells (total CFUs). Type of series: cell-based, Staphylococcus aureus. To be noted: 0.1 liters/minute. An excerpt: (§1) After an infection period is over, tissue samples can be homogenized, and serial dilutions can be grown on LB agar plates in order to facilitate the counting of colony formation units (CFUs), which approximate the level of bacteria present in the sample after infection. Other methods of quantifying infection and the various manifestations of infection are also possible, as would be recognized by one of ordinary skill in the art based on the present disclosure. For example, activation of various cytokines can be measured, as well as gene expression (upregulation and/or down regulation) of various genetic regulators of inflammatory and immune responses taking place in cells and tissues. These experimental procedures allow for the investigation of various experimental factors and perturbations, such as NO pressures, exposure times, and flow rates, in the context of skin infection and how they may influence bioburden reduction and wound healing.
(§2) In FIG. 4, the growth curves of several pathogenic bacteria are shown, including MRSA, Acinetobacter and Pseudomonas. In order to determine whether a given set of experimental factors or perturbations relating to NO exposure reduces bioburden, tissue samples were infected with the same concentration of bacteria under the same experimental conditions. […] In some aspects, 15 μl of a bacterial culture is sufficient to infect a cell or tissue sample.
(§3) Full-thickness skin tissue samples (e.g., EPIDERM tissue model from MatTek Corp., Ashland, Mass. 01721) were exposed to various experimental factors. […] The skin samples used were infected with S. aureus for 24 hours, followed by 90 minutes of pressurized exposure at a flow rate of 0.1 liters/minute.
(§4) The samples used were infected with Staphylococcus, MRSA, Acinetobacter or Pseudomonas.
(§5) Experiments were also conducted as described above in the previous examples to determine the minimum amount of exposure time necessary to obtain maximum reductions in bioburden. In some cases, determining the minimum tissue exposure time to gNO can reduce any potentially detrimental effects on the health of the tissue, while still reducing bioburden. Flow rate was maintained at 0.1 liters/minute, but the exposure time was shortened to 60 minutes at 1 ATM (independent of and in addition to the pressure applied by the external environment).
Experiments were also conducted as described above in the previous examples to determine the minimum amount of gNO pressure necessary to obtain maximum reductions in bioburden. In some cases, determining the minimum amount of gNO pressure can reduce any potentially detrimental effects on the health of the tissue, while still reducing bioburden.

For the next series, the system named is MRSA. The series is described as above. Type of series: cell-based. To be noted: 1 ATM, 0.1 liters/minute.
Excerpt: as §1, §2, §3, §4, §5

The test system of another series is P. aeruginosa. The series is described as above. Type of series: cell-based. To be noted: 1 ATM, 0.1 liters/minute.
Excerpt: as §1, §2, §3, §4, §5

The test system of the next series is A. baumannii. The description is as above. Type of series: cell-based. To be noted: 1 ATM, 0.1 liters/minute.
Excerpt: as §1, §2, §3, §4, §5

Series [1] concerns full-thickness skin tissue samples. The series can be described thus: Tissue viability using MTT assays. Format: cell-based, human. On the procedure: Experiments were also conducted to investigate the effects of various NO pressures, exposure times, and flow rates on tissue viability using MTT assays. An MTT assay is a colorimetric assay for assessing cell viability. NAD(P)H-dependent cellular oxidoreductase enzymes may, under defined conditions, reflect the number of viable cells present. These enzymes are capable of reducing the tetrazolium dye MTT 3-(4,5-dimethylthiazol-2-yl)-2,5-diphenyltetrazolium bromide to its insoluble formazan, which has a purple color. Other closely related tetrazolium dyes including XTT, MTS and the WSTs, can also be used. Tetrazolium-based dye assays can also be used to measure cytotoxicity (loss of viable cells) or cytostatic activity (shift from proliferation to quiescence) of potential medicinal agents and toxic materials.

As for `[N]=O` [gNO, Nitric Oxide], the bioburden reduction entry in the series on S. aureus (NO at 0.25 ATM, 90 minutes, infected 24 hours) is on record as “sufficient to reduce bioburden”; in the series on S. aureus (NO at 0.3 ATM, 90 minutes, infected 24 hours), “sufficient to reduce bioburden”. Moreover, the “log reduction in bioburden” value is recorded as roughly 3 log with S. aureus (S. aureus (biofilm-forming), 1% NO, 90 min, 1 ATM, infected 24 hours); 5-6 log in the series with MRSA (1% NO, 90 min, infected 24 hours); 5-6 log in the series with P. aeruginosa (P. aeruginosa, 1% NO, 90 min, infected 24 hours); 5-6 log in the series on A. baumannii (A. baumannii, 1% NO, 90 min, infected 24 hours). Besides, the “reduction of bioburden compared to controls” value in the series with S. aureus (S. aureus, 60 minutes, 1 ATM) is given as “did not show significant reduction of bioburden”; in the series on MRSA (60 minutes), “did not show significant reduction of bioburden”; in the series on P. aeruginosa (P. aeruginosa, 60 minutes), “effective”; with A. baumannii (A. baumannii, 60 minutes), “effective”. Further, the “bacterial bioburden (CFUs)” value is reported as “completely eliminated” in the series on S. aureus (Staphylococcus, 1% NO, 1 ATM, 120 minutes, 24 hours of infection); “completely eliminated” in the series on MRSA (1% NO, 120 minutes, 24 hours of infection); “completely eliminated” in the series with P. aeruginosa (Pseudomonas, 1% NO, 120 minutes, 24 hours of infection); “completely eliminated” with A. baumannii (Acinetobacter, 1% NO, 120 minutes, 24 hours of infection). Besides, the “bioburden (total CFUs)” value in the series on S. aureus (pressurized gNO at 1 ATM compared to 0 ATM, 90 minutes, infected 24 hours) is “did significantly reduce bioburden”. Moreover, the “tissue viability (MTT)” value is listed as “viability increased” in series [1] (1% NO with or without pressure, as exposure time decreased); “caused a decrease in viability” in series [1] (combination of pressurized gNO and increasing concentrations of NO).
